From ChEMBL document CHEMBL1158712, “Acetylated aporphine alkaloids from Lysichiton camtschatcense” (J Nat Prod, 2005) come the findings set out here.

Test [1] deals with Radical scavenging activity. Put plainly: Antioxidant activity assessed as DPPH radical scavenging activity after 48 hrs. The class given is functional.
The subject of test [2] is Radical scavenging activity. As to the kind of experiment: Antioxidant activity assessed as DPPH radical scavenging activity after 30 mins. The test is classed as functional.

As to `CC(=O)O[C@H]1c2ccccc2-c2c3c(cc4c2[C@@H]1N(C(C)=O)CC4)OCO3`, the IC50 in test [1] is 518 µM. Moreover, the Activity in test [2] was less than 10%.

For the compound `COc1cc2c3c(c1OC)-c1ccccc1[C@H](OC(C)=O)[C@H]3N(C(C)=O)CC2`, the IC50 in test [1] came to 362 µM. The Activity in test [2] was less than 10%.
